The results in this text go back to paper PMC11574021, “CEP192 localises mitotic Aurora-A activity by priming its interaction with TPX2” (The EMBO Journal, 2024).

The subject of this assay is PLK1 in RPE1 p53-/- cells. The experiment in a line: Immunofluorescence, PLK1 centrosomal signal intensity, RPE1 p53-/-. In kind it is cell-based, Homo sapiens. The conditions noted are these: Aurora-A inhibitor 30 min. How it is done: As noted in the figures, the following drugs were incubated with cells for 30 min at 37 °C: Aurora-B-i ZM447439 2 µM [10 mM], PLK1-I BI2536 1 µM [10 mM] and Aurora-A-i MLN8237 [5 mM] was used at 250 and 500 nM in U251 and RPE1 cells, respectively. Drugs were resuspended in DMSO to the stock concentrations indicated in square brackets. BI2536 (HY-50698), MLN8237 (HY-10971) and ZM447439 (HY-10128) were all purchased from MedChemExpress. For western blotting, a 20-min pre-treatment with proteasome inhibitor (20 µM MG-132, MerckMillipore, 47490 [20 mM]) was required prior to the addition of DMSO control or kinase inhibitors. This prevented mitotic exit as a consequence of checkpoint override following Aurora-A and Aurora-B inhibitor addition.
For siRNA depletion, 1 × 10^5 cells were seeded in six-well plates and transfected as described above for 48 h prior to fixation. For all other experiments, 2.5 × 10^5 cells were seeded in six-well plates and grown for 24 h before fixation. All cells were grown on 12 mm diameter glass coverslips (VWR, 631–1577). […]
For CEP192, LATS2-pS83, PCNT, PLK1 and γ-tubulin intensity, a 20-pixel diameter circle was centred over each centrosome and the intensity measured. […]

Each structure is given as a SMILES string.

On to `COc1cc(Nc2ncc3c(n2)-c2ccc(Cl)cc2C(c2c(F)cccc2OC)=NC3)ccc1C(=O)O` [Alisertib], for which the “centrosomal Plk1 levels” value was “negative trend”.
